Assays:
[1] = system: CPA-CLP sepsis mouse model; test: Effects of LPC, LPC isomers, Xigris and DW286aa on mortalities/survivabilities in CPA-CLP sepsis mouse model (SEP009); single i.v. 6 hrs after CLP; assay type: in vivo
Procedure: (§1) CPA is well known as an immunosuppressive agent. […] Then, the abdomen was closed following the general procedure.
(§2) Then, body weight and mortality changes were observed.
In the Sham and CLP control groups, 10 ml/kg of only sterile physiological saline was single intravenously dosed.

[2] = system: CPA-CLP sepsis mouse model; test: Combination effects of LPC and antibiotics (colistin, tobramycin, fusidin) in CPA-CLP sepsis mouse model (SEP013); single i.v. 6 hrs after CLP; assay type: in vivo, ICR mice; settings: mpk: LPC 5, DW286aa 5, Colistin 5, Tobra 4, Fusidin 80, LPC + Colistin 5 + 5, LPC + Tobra 5 + 4, LPC + Fusidin 5 + 80
Source text: as §1, §2

[3] = LPC, LPC18:0, LPC18:1, LPA 5 mpk, Xigris 0.4 mpk, DW286aa 10 mpk, 1st CPA treat
[4] = LPC, LPC18:0, LPC18:1, LPA 5 mpk, Xigris 0.4 mpk, DW286aa 10 mpk, 2nd CPA treat
[5] = LPC, LPC18:0, LPC18:1, LPA 5 mpk, Xigris 0.4 mpk, DW286aa 10 mpk, At CLP (day 0)
[6] = LPC, LPC18:0, LPC18:1, LPA 5 mpk, Xigris 0.4 mpk, DW286aa 10 mpk, Day 1
[7] = LPC, LPC18:0, LPC18:1, LPA 5 mpk, Xigris 0.4 mpk, DW286aa 10 mpk, Day 2
[8] = LPC, LPC18:0, LPC18:1, LPA 5 mpk, Xigris 0.4 mpk, DW286aa 10 mpk, Day 3
[9] = LPC, LPC18:0, LPC18:1, LPA 5 mpk, Xigris 0.4 mpk, DW286aa 10 mpk, Day 4
[10] = LPC, LPC18:0, LPC18:1, LPA 5 mpk, Xigris 0.4 mpk, DW286aa 10 mpk, Day 5
[11] = LPC, LPC18:0, LPC18:1, LPA 5 mpk, Xigris 0.4 mpk, DW286aa 10 mpk, Day 6
[12] = LPC, LPC18:0, LPC18:1, LPA 5 mpk, Xigris 0.4 mpk, DW286aa 10 mpk, Day 7
[13] = LPC, LPC18:0, LPC18:1, LPA 5 mpk, Xigris 0.4 mpk, DW286aa 10 mpk, Day 8
[14] = LPC, LPC18:0, LPC18:1, LPA 5 mpk, Xigris 0.4 mpk, DW286aa 10 mpk, Day 9
[15] = LPC, LPC18:0, LPC18:1, LPA 5 mpk, Xigris 0.4 mpk, DW286aa 10 mpk, Day 10
[16] = LPC, LPC18:0, LPC18:1, LPA 5 mpk, Xigris 0.4 mpk, DW286aa 10 mpk, Total
[17] = Xigris 2 mpk, DW286aa 20 mpk, 1st CPA treat
[18] = Xigris 2 mpk, DW286aa 20 mpk, 2nd CPA treat
[19] = Xigris 2 mpk, DW286aa 20 mpk, At CLP (day 0)
[20] = Xigris 2 mpk, DW286aa 20 mpk, Day 1
[21] = Xigris 2 mpk, DW286aa 20 mpk, Day 2
[22] = Xigris 2 mpk, DW286aa 20 mpk, Day 3
[23] = Xigris 2 mpk, DW286aa 20 mpk, Day 4
[24] = Xigris 2 mpk, DW286aa 20 mpk, Day 5
[25] = Xigris 2 mpk, DW286aa 20 mpk, Day 6
[26] = Xigris 2 mpk, DW286aa 20 mpk, Day 7
[27] = Xigris 2 mpk, DW286aa 20 mpk, Day 8
[28] = Xigris 2 mpk, DW286aa 20 mpk, Day 9
[29] = Xigris 2 mpk, DW286aa 20 mpk, Day 10
[30] = Xigris 2 mpk, DW286aa 20 mpk, Total

## 1-oleoyl-2-hydroxy-sn-glycero-3-phosphocholine [LPC18:1]
[1]; [3]
  Mortalities: 0
  survivabilities: 100%
[1]; [4]
  Mortalities: 0
  survivabilities: 100%
[1]; [5]
  Mortalities: 0
  survivabilities: 100%
[1]; [6]
  Mortalities: 0
  survivabilities: 100%
[1]; [7]
  Mortalities: 10
  survivabilities: 0%
[1]; [8]
  Mortalities: 0
  survivabilities: 0%
[1]; [9]
  Mortalities: 0
  survivabilities: 0%
[1]; [10]
  Mortalities: 0
  survivabilities: 0%
[1]; [11]
  Mortalities: 0
  survivabilities: 0%
[1]; [12]
  Mortalities: 0
  survivabilities: 0%
[1]; [13]
  Mortalities: 0
  survivabilities: 0%
[1]; [14]
  Mortalities: 0
  survivabilities: 0%
[1]; [15]
  Mortalities: 0
  survivabilities: 0%
[1]; [16]
  Mortalities: 10
  survivabilities: 0%

## CC(=O)O[C@H]1C[C@@]2(C)[C@@H](C[C@@H](O)[C@H]3[C@@]4(C)CC[C@@H](O)[C@@H](C)[C@@H]4CC[C@@]32C)/C1=C(\CCC=C(C)C)C(=O)O [Fusidin, fusidic acid]
[2]; 1st CPA treat
  Mortalities: 0
  Survivalities: 100%
[2]; 2nd CPA treat
  Mortalities: 0
  Survivalities: 100%
[2]; At CLP (day 0)
  Mortalities: 0
  Survivalities: 100%
[2]; Day 1
  Mortalities: 2
  Survivalities: 80%
[2]; Day 2
  Mortalities: 5
  Survivalities: 30%
[2]; Day 3
  Mortalities: 1
  Survivalities: 20%
[2]; Total
  Mortalities: 8
  Survivalities: 20%

## CCCCCCCCCCCCCCCCCC(=O)OC[C@@H](O)COP(=O)([O-])OCC[N+](C)(C)C [LPC18:0]
[1]; [3]
  Mortalities: 0
  survivabilities: 100%
[1]; [4]
  Mortalities: 0
  survivabilities: 100%
[1]; [5]
  Mortalities: 0
  survivabilities: 100%
[1]; [6]
  Mortalities: 0
  survivabilities: 100%
[1]; [7]
  Mortalities: 6
  survivabilities: 40%
[1]; [8]
  Mortalities: 0
  survivabilities: 40%
[1]; [9]
  Mortalities: 1
  survivabilities: 30%
[1]; [10]
  Mortalities: 1
  survivabilities: 20%
[1]; [11]
  Mortalities: 0
  survivabilities: 20%
[1]; [12]
  Mortalities: 1
  survivabilities: 10%
[1]; [13]
  Mortalities: 1
  survivabilities: 0%
[1]; [14]
  Mortalities: 0
  survivabilities: 0%
[1]; [15]
  Mortalities: 0
  survivabilities: 0%
[1]; [16]
  Mortalities: 10
  survivabilities: 0%

## NC[C@H]1O[C@H](O[C@H]2[C@H](O)[C@@H](O[C@H]3O[C@H](CO)[C@@H](O)[C@H](N)[C@H]3O)[C@H](N)C[C@@H]2N)[C@H](N)C[C@@H]1O [Tobra, tobramycin]
[2]; 1st CPA treat
  Mortalities: 0
  Survivalities: 100%
[2]; 2nd CPA treat
  Mortalities: 0
  Survivalities: 100%
[2]; At CLP (day 0)
  Mortalities: 0
  Survivalities: 100%
[2]; Day 1
  Mortalities: 2
  Survivalities: 80%
[2]; Day 2
  Mortalities: 5
  Survivalities: 30%
[2]; Day 3
  Mortalities: 1
  Survivalities: 20%
[2]; Total
  Mortalities: 8
  Survivalities: 20%

## colistin
[2]; 1st CPA treat
  Mortalities: 0
  Survivalities: 100%
[2]; 2nd CPA treat
  Mortalities: 0
  Survivalities: 100%
[2]; At CLP (day 0)
  Mortalities: 0
  Survivalities: 100%
[2]; Day 1
  Mortalities: 1
  Survivalities: 90%
[2]; Day 2
  Mortalities: 5
  Survivalities: 40%
[2]; Day 3
  Mortalities: 2
  Survivalities: 20%
[2]; Total
  Mortalities: 9
  Survivalities: 20%

## drotrecogin alfa (activated) [Xigris, reference compound]
[1]; [3]
  Mortalities: 0
  survivabilities: 100%
[1]; [4]
  Mortalities: 0
  survivabilities: 100%
[1]; [5]
  Mortalities: 0
  survivabilities: 100%
[1]; [6]
  Mortalities: 3
  survivabilities: 70%
[1]; [7]
  Mortalities: 4
  survivabilities: 30%
[1]; [8]
  Mortalities: 2
  survivabilities: 10%
[1]; [9]
  Mortalities: 0
  survivabilities: 10%
[1]; [10]
  Mortalities: 0
  survivabilities: 10%
[1]; [11]
  Mortalities: 0
  survivabilities: 10%
[1]; [12]
  Mortalities: 0
  survivabilities: 10%
[1]; [13]
  Mortalities: 1
  survivabilities: 0%
[1]; [14]
  Mortalities: 0
  survivabilities: 0%
[1]; [15]
  Mortalities: 0
  survivabilities: 0%
[1]; [16]
  Mortalities: 10
  survivabilities: 0%
[1]; [17]
  Mortalities: 0
  survivabilities: 100%
[1]; [18]
  Mortalities: 0
  survivabilities: 100%
[1]; [19]
  Mortalities: 0
  survivabilities: 100%
[1]; [20]
  Mortalities: 0
  survivabilities: 100%
[1]; [21]
  Mortalities: 5
  survivabilities: 50%
[1]; [22]
  Mortalities: 1
  survivabilities: 40%
[1]; [23]
  Mortalities: 3
  survivabilities: 10%
[1]; [24]
  Mortalities: 0
  survivabilities: 10%
[1]; [25]
  Mortalities: 0
  survivabilities: 10%
[1]; [26]
  Mortalities: 0
  survivabilities: 10%
[1]; [27]
  Mortalities: 1
  survivabilities: 0%
[1]; [28]
  Mortalities: 0
  survivabilities: 0%
[1]; [29]
  Mortalities: 0
  survivabilities: 0%
[1]; [30]
  Mortalities: 10
  survivabilities: 0%

Source: US9446061B2, “Composition containing antibiotics and lysophosphatidylcholine for boosting immunity or treatment of bacterial infections” (priority 2011, dated 2016)
